Entries after “also recorded” stand apart in the source; their conditions may differ.
Test system: Jurkat
Test: 48-hour IC50 by MTS, Jurkat acute T-cell leukemia cells
Assay type: cell-based, human
Settings: not given
Method: (§1) Cells were grown in media supplemented with fetal bovine serum (FBS) and antibiotics (100 μg/mL penicillin and 100 U/mL streptomycin). […] Cells were incubated at 37° C. in a 5% CO2, 95% humidity atmosphere.
(§2) In a 96-well plate, compounds were pre-added as DMSO stocks (1% final) in triplicate to achieve final concentrations of 1 nM to 10 μM on a half log scale. DMSO and cell-free wells served as the live and dead control, respectively. […] IC50 values were determined from three or more independent experiments using TableCurve (San Jose, Calif.).

| SMILES | IC50 |
| --- | --- |
| CN1C(=O)N[C@@]2(O)[C@@H]3NC(=O)c4ccc(Br)n4[C@@H]3C[C@@]12O [(−)-3, (−)-agelastatin C] | 5310 ± 350 nM |
| O=C1N[C@H]2[C@@H]3NC(=O)c4ccc(Br)n4[C@@H]3C[C@@]2(O)N1 [(−)-4, (−)-agelastatin D] | 210 ± 63 nM |

Test system: procaspase-3 and PARP-1 cleavage
Test: Western blot analysis of procaspase-3 and PARP-1 cleavage in U-937 cells
Assay type: cell-based, human
Settings: 24 hours
Method: FIG. 2. […] Western blot analysis of procaspase-3 and PARP-1 cleavage at 24 hours in U-937 cells using β-actin as loading control. Compounds were tested at indicated concentrations and STS (10 nM); C3=caspase-3; PARP=poly(ADP-ribose) polymerase 1; PC3=procaspase-3; STS=staurosporine.

| SMILES | activation of procaspase-3 to active caspase-3 and cleavage of PARP-1 |
| --- | --- |
| O=C1N[C@H]2[C@@H]3NC(=O)c4ccc(Br)n4[C@@H]3C[C@@]2(O)N1 [(−)-4, (−)-agelastatin D] | dose-dependent activation |

Test system: CEM
Test: 48-hour IC50 by MTS, CEM acute lymphoblastic leukemia cells
Assay type: cell-based, human
Settings: not given
Method: as §1, §2

| SMILES | IC50 |
| --- | --- |
| CN1C(=O)N[C@@]2(O)[C@@H]3NC(=O)c4ccc(Br)n4[C@@H]3C[C@@]12O [(−)-3, (−)-agelastatin C] | 2100 ± 1300 nM |
| O=C1N[C@H]2[C@@H]3NC(=O)c4ccc(Br)n4[C@@H]3C[C@@]2(O)N1 [(−)-4, (−)-agelastatin D] | 74 ± 25 nM |

Test system: Daudi
Test: 48-hour IC50 by MTS, Daudi Burkitt's lymphoma cells
Assay type: cell-based, human
Settings: not given
Method: as §1, §2

| SMILES | IC50 |
| --- | --- |
| CN1C(=O)N[C@@]2(O)[C@@H]3NC(=O)c4ccc(Br)n4[C@@H]3C[C@@]12O [(−)-3, (−)-agelastatin C] | 7200 ± 2900 nM |
| O=C1N[C@H]2[C@@H]3NC(=O)c4ccc(Br)n4[C@@H]3C[C@@]2(O)N1 [(−)-4, (−)-agelastatin D] | 202 ± 15 nM |

Test system: CA46
Test: 48-hour IC50 by MTS, CA46 Burkitt's lymphoma cells
Assay type: cell-based, human
Settings: not given
Method: as §1, §2

| SMILES | IC50 |
| --- | --- |
| CN1C(=O)N[C@@]2(O)[C@@H]3NC(=O)c4ccc(Br)n4[C@@H]3C[C@@]12O [(−)-3, (−)-agelastatin C] | > 10000 nM |
| O=C1N[C@H]2[C@@H]3NC(=O)c4ccc(Br)n4[C@@H]3C[C@@]2(O)N1 [(−)-4, (−)-agelastatin D] | 460 ± 240 nM |

Test system: IMR90
Test: 48-hour IC50 by SRB, IMR90  lung fibroblasts
Assay type: cell-based, human
Settings: IMR90 immortalized lung fibroblasts
Method: as §1
(§3) Adherent cells (HeLa, A549, BT549, and IMR90) were added into 96-well plates (5,000 cells/well for HeLa cell line; 2,000 cells/well for A549, BT549, and IMR90 cell lines) in 100 μL media and were allowed to adhere for 2-3 hours. Compounds were solubilized in DMSO as 100× stocks, added directly to the cells (100 μL final volume), and tested over a range of concentrations (1 nM to 10 μM) in triplicate (1% DMSO final) on a half-log scale. DMSO and cell-free wells served as the live and dead control, respectively. […] Briefly, media was removed from the plate, and cells were fixed by the addition of 100 μL cold 10% trichloroacetic acid in water. After incubating at 4° C. for 1 h, the plates were washed in water and allowed to dry. Sulforhordamine B was added as a 0.057% solution in 1% acetic acid (100 μL), and the plates were incubated at room temperature for 30 min, washed in 1% acetic acid, and allowed to dry. […] IC50 values were determined from three or more independent experiments using TableCurve (San Jose, Calif.).

| SMILES | IC50 |
| --- | --- |
| CN1C(=O)N[C@@]2(O)[C@@H]3NC(=O)c4ccc(Br)n4[C@@H]3C[C@@]12O [(−)-3, (−)-agelastatin C] | > 10000 nM |
| O=C1N[C@H]2[C@@H]3NC(=O)c4ccc(Br)n4[C@@H]3C[C@@]2(O)N1 [(−)-4, (−)-agelastatin D] | 2750 ± 600 nM |

Test system: synchronized U-937 cells
Test: Cell cycle arrest in thymidine-synchronized U-937 cells
Assay type: cell-based, human
Settings: 16 hours, PI, flow cytometry
Method: Samples were fixed, treated with an RNAse, stained with PI, and analyzed by flow cytometry. Taxol, a microtubule stabilizer, was used as a positive control. Error bars represent standard deviation of the mean, n=3. * p<0.01. PI=propidium iodide.
U-937 cells were split to 50% confluency (250,000 cells/mL) and treated with 2 mM thymidine for 10 hours. The cells were then pelleted (500 g, 3 minutes) and washed with PBS before being resuspended in thymidine-free media and allowed to recover for 13 hours. The cells were then re-blocked with 2 mM thymidine for 10 hours, and then washed with PBS as before and resuspended in media (250,000 cells/mL).
DMSO stocks of compounds were added to a 24-well plate in triplicate (0.2% DMSO final), after which 1 mL of the prepared cell suspension was added. Following a 16 h incubation, the cell suspensions were transferred to 2 mL tubes and pelleted (600 g, 3 min). The media was removed by aspiration, and the cells were fixed with 0.5 mL of ice cold 70% ethanol with vortexing. The samples were fully fixed at −20° C. for 3 hours. The samples were then pelleted (1000 g, 5 min) and the supernatant was removed via aspiration. […] Prior to reading, the samples were taken up in 150 μL of 50 μg/mL propidium iodide in PBS and transferred to flow cytometry tubes. Samples were analyzed based on whole, single cells.

| SMILES | G2/M cell cycle arrest |
| --- | --- |
| O=C1N[C@H]2[C@@H]3NC(=O)c4ccc(Br)n4[C@@H]3C[C@@]2(O)N1 [(−)-4, (−)-agelastatin D] | dose-dependent G2/M cell cycle arrest |

Test system: human cell lines (U-937, HeLa, A549, BT549, IMR90)
Test: Ability to induce cell death in the panel of five human cell lines (Table 3)
Assay type: cell-based
Settings: 48-hour exposure, 1 nM to 10 μM, cell lines of Table 3; listed as (−)-agelastatin C (3)
Method: Six (−)-agelastatins along with eight closely related derivatives prepared in the above examples were tested (Table 3). The six (−)-agelastatin alkaloids (1-6, respectively), (−)-O-methyl-di-epi-agelastatin A (50), (−)-dehydroagelastatin A (51), (−)-di-epi-agelastatin C (52), (+)-O-methyl-pre-agelastatin A and D (39 and 53, respectively), along with bicyclic pyrroles (+)-44, (+)-45, and triazone (+)-48 were tested for their ability to induce cell death in four human cancer cell lines (U-937, lymphoma; HeLa, cervical carcinoma; A549, non-small cell lung carcinoma; and BT549, breast carcinoma) and one immortalized normal human cell line (IMR90, lung fibroblasts) after a 48-hour exposure. […] Furthermore, enhanced activities in U-937 (20×) cell relative to the other cell lines (Table 3) were observed.
Adherent cells (HeLa, A549, BT549, and IMR90) were added into 96-well plates (5,000 cells/well for HeLa cell line; 2,000 cells/well for A549, BT549, and IMR90 cell lines) in 100 μL media and were allowed to adhere for 2-3 hours. Compounds were solubilized in DMSO as 100× stocks, added directly to the cells (100 μL final volume), and tested over a range of concentrations (1 nM to 10 μM) in triplicate (1% DMSO final) on a half-log scale. DMSO and cell-free wells served as the live and dead control, respectively. After 48 h of continuous exposure, the plates were evaluated using the SRB colorimetric assay as described previously (V. Vichai, K. Kirtikara, Nature Prot., 2006, 1, 1112). Briefly, media was removed from the plate, and cells were fixed by the addition of 100 μL cold 10% trichloroacetic acid in water. After incubating at 4° C. for 1 h, the plates were washed in water and allowed to dry. Sulforhordamine B was added as a 0.057% solution in 1% acetic acid (100 μL), and the plates were incubated at room temperature for 30 min, washed in 1% acetic acid, and allowed to dry. The dye was solubilized by adding 10 mM Tris base solution (pH 10.5, 200 μL) and incubating at room temperature for 30 min Plates were read at λ=510 nm. IC50 values were determined from three or more independent experiments using TableCurve (San Jose, Calif.).
In a 96-well plate, compounds were pre-added as DMSO stocks (1% final) in triplicate to achieve final concentrations of 1 nM to 10 μM on a half log scale. DMSO and cell-free wells served as the live and dead control, respectively. Suspension cells (U-937, CEM, CA46, Daudi, HL-60, and Jurkat; 10,000 cells/well) cells were distributed in 100 μL media to the compound-containing plate. After 48 h, cell viability was assessed by adding 20 μL of a PMS/MTS solution (A. H. Cory, T. C. Owen, J. A. Barltrop, J. G. Cory, Cancer Commun., 1991, 3, 207) to each well, allowing the dye to develop at 37° C. until the live control had processed MTS, and reading the absorbance at λ=490 nm. IC50 values were determined from three or more independent experiments using TableCurve (San Jose, Calif.).

| SMILES | activity (ability to induce cell death) in words |
| --- | --- |
| CN1C(=O)N[C@@]2(O)[C@@H]3NC(=O)c4ccc(Br)n4[C@@H]3C[C@@]12O [(−)-3, (−)-agelastatin C] | little activity at the concentrations examined; also recorded: abolishes activity |

Same assay, conditions: (−)-2 vs (−)-1, (−)-6 vs (−)-4, D (4) and E (5) vs A (1); Table 3 data

| SMILES | reduction in anticancer potency relative to the compared agelastatin |
| --- | --- |
| O=C1N[C@H]2[C@@H]3NC(=O)c4ccc(Br)n4[C@@H]3C[C@@]2(O)N1 [(−)-4, (−)-agelastatin D] | 1-5 fold |

Test system: HL-60
Test: 48-hour IC50 by MTS, HL-60 acute promyelocytic leukemia cells
Assay type: cell-based, human
Settings: not given
Method: as §1, §2

| SMILES | IC50 |
| --- | --- |
| CN1C(=O)N[C@@]2(O)[C@@H]3NC(=O)c4ccc(Br)n4[C@@H]3C[C@@]12O [(−)-3, (−)-agelastatin C] | > 10000 nM |
| O=C1N[C@H]2[C@@H]3NC(=O)c4ccc(Br)n4[C@@H]3C[C@@]2(O)N1 [(−)-4, (−)-agelastatin D] | 540 ± 120 nM |

Test system: U-937
Test: 48-hour IC50 by MTS, U-937 lymphoma cells
Assay type: cell-based, human
Settings: not given
Method: as §1, §2

| SMILES | IC50 |
| --- | --- |
| CN1C(=O)N[C@@]2(O)[C@@H]3NC(=O)c4ccc(Br)n4[C@@H]3C[C@@]12O [(−)-3, (−)-agelastatin C] | > 10000 nM |
| O=C1N[C@H]2[C@@H]3NC(=O)c4ccc(Br)n4[C@@H]3C[C@@]2(O)N1 [(−)-4, (−)-agelastatin D] | 240 ± 33 nM |

Test system: U-937 cells
Test: Apoptosis in U-937 cells with Annexin V-FITC and propidium iodide
Assay type: cell-based, human
Settings: 21 hours, flow cytometry
Method: FIG. 3. […] Analysis of phosphatidylserine exposure and propidium iodide inclusion at 21 hours in U-937 cells. Compounds were tested at indicated concentrations and STS was used as a positive control for apoptosis. Samples were analyzed by flow cytometry for the relative timing of phosphatidylserine exposure relative to PI inclusion. FITC=fluorescein isothiocyanate; PI=propidium iodide; STS=staurosporine.
DMSO stocks of compounds were added to a 24-well plate in singlicate (0.2% DMSO final). […] Following treatment, the cell suspensions were transferred to flow cytometry tubes and pelleted (500 g, 3 min). The media was removed by aspiration, and cells were resuspended in 200 μL AnnV binding buffer (10 mM HEPES, pH 7.4, 140 mM NaCl, 2.5 mM CaCl2) with 5 μg/mL PI and 1:90 dilution of AnnV. Samples were analyzed using flow cytometry.

| SMILES | apoptosis (phosphatidylserine exposure and propidium iodide inclusion) |
| --- | --- |
| O=C1N[C@H]2[C@@H]3NC(=O)c4ccc(Br)n4[C@@H]3C[C@@]2(O)N1 [(−)-4, (−)-agelastatin D] | induced dose-dependent apoptosis |

Test system: BT549
Test: 48-hour IC50 by SRB, BT549 breast carcinoma cells
Assay type: cell-based, human
Settings: not given
Method: as §1, §3

| SMILES | IC50 |
| --- | --- |
| CN1C(=O)N[C@@]2(O)[C@@H]3NC(=O)c4ccc(Br)n4[C@@H]3C[C@@]12O [(−)-3, (−)-agelastatin C] | > 10000 nM |
| O=C1N[C@H]2[C@@H]3NC(=O)c4ccc(Br)n4[C@@H]3C[C@@]2(O)N1 [(−)-4, (−)-agelastatin D] | 631 ± 82 nM |

Test system: A549
Test: 48-hour IC50 by SRB, A549 non-small cell lung carcinoma cells
Assay type: cell-based, human
Settings: not given
Method: as §1, §3

| SMILES | IC50 |
| --- | --- |
| CN1C(=O)N[C@@]2(O)[C@@H]3NC(=O)c4ccc(Br)n4[C@@H]3C[C@@]12O [(−)-3, (−)-agelastatin C] | > 10000 nM |
| O=C1N[C@H]2[C@@H]3NC(=O)c4ccc(Br)n4[C@@H]3C[C@@]2(O)N1 [(−)-4, (−)-agelastatin D] | 920 ± 160 nM |

Test system: HeLa
Test: 48-hour IC50 by SRB, HeLa cervical carcinoma cells
Assay type: cell-based, human
Settings: not given
Method: as §1, §3

| SMILES | IC50 |
| --- | --- |
| CN1C(=O)N[C@@]2(O)[C@@H]3NC(=O)c4ccc(Br)n4[C@@H]3C[C@@]12O [(−)-3, (−)-agelastatin C] | > 10000 nM |
| O=C1N[C@H]2[C@@H]3NC(=O)c4ccc(Br)n4[C@@H]3C[C@@]2(O)N1 [(−)-4, (−)-agelastatin D] | 1000 ± 200 nM |

Test system: tubulin dynamics
Test: Tubulin microscopy with HeLa cells
Assay type: cell-based, human
Settings: 16 hours, confocal microscopy
Method: HeLa cells were treated with compound for 16 hours, fixed, stained, and visualized using confocal microscopy.
Round, 1.5 mm coverslips (No. 1.5) were sterilized with ultraviolet light and placed in a 12-well plate. HeLa cells (100,000 cells/well) were added and allowed to adhere for eight hours. Compounds were then added as DMSO stocks to achieve a final DMSO concentration of 1%, and the plates were returned to the incubator for 16 hours.
Following incubation, the media was removed, and the coverslips were fixed with 0.5 mL Microtubulin Stabilizing Buffer (MTSB, 80 mM PIPES, pH 6.8, 1 mM MgCl2, 5 mM EGTA, 0.5% TX-100)+0.5% glutaraldehyde for 10 minutes at room temperature, after which the fixative was removed and the sample was quenched with the addition of 0.5 mL of freshly-prepared 1 mg/mL NaBH4 in PBS. After a 5 min incubation, the solution was removed by aspiration and the coverslips were washed with PBS.
Coverslips were transferred to parafilm-lined culture dishes (cell-side up), and 40 μL of 50 μg/mL RNase A in Antibody Diluting Solution (AbDil, PBS, pH 7.4, 0.2% TX-100, 2% BSA, 0.1% NaN3) with 1:50 dilution of anti-α-tubulin-FITC antibody was added to all samples. The samples were allowed to incubate at room temperature in the dark for 2.5 hours, after which the coverslips were washed three times with PBS+0.1% TX-100. […]

| SMILES | effect on tubulin dynamics |
| --- | --- |
| O=C1N[C@H]2[C@@H]3NC(=O)c4ccc(Br)n4[C@@H]3C[C@@]2(O)N1 [(−)-4, (−)-agelastatin D] | do not affect tubulin dynamics |
